Results taken from patent publication US9456599B2, “Adjuvants” (SYNGENTA LIMITED, priority 2012, dated 2016).

Legend:
Chenopodium album [1] = experiment: Glasshouse post-emergence spray test, nicosulfuron with adjuvant (Example 1); format: in vivo; details: nicosulfuron 30 or 60 g/ha, adjuvant 0.2% by volume; mean over two rates, three replicates, 17 and 21 days
Protocol: (§1) Setaria viridis, Chenopodium album, Abutilon theophrasti and Digitaria sanguinalis seeds were sown into standard soil in pots and cultivated under controlled conditions in a glasshouse (at 24/18° C. day/night; 16 hours light; 65% humidity).
(§2) When the plants were at the vegetative stage of 3-4 leaves they were sprayed with an aqueous spray solution containing the herbicide nicosulfuron and 0.2% v/v of one of the carbonates, B92-P-Carbonate, B92-B-Carbonate and B96-P-Carbonate (see Table 1).
(§3) Each spray solution was applied with a cabinet tracksprayer with a flat fan nozzle (Teejet 11002VS) and an application volume of 200 liter/ha (at 2 bar). Nicosulfuron was applied at either 30 or 60 grams of pesticide per hectare.
(§4) The test plants were then grown on, in a glasshouse under controlled conditions (at 24/18° C. day/night; 16 hours light; 65% humidity) and watered twice a day. After 17 and 21 days the test was evaluated for general crop injury (100% equals total damage to a plant; 0% equals no damage to a plant).
(§5) The results shown in Table 3 below are mean averages over the two rates of nicosulfuron, three replicates and the two assessment timings, and are compared to the efficacy of nicosulfuron in the absence of an adjuvant and nicosulfuron in the presence of the commercially available tank-mix adjuvant, Atplus411F® (at 0.2% by volume).

Digitaria sanguinalis = experiment: as above; format: in vivo; details: nicosulfuron 30 or 60 g/ha, adjuvant 0.2% by volume; mean over two rates, three replicates, 17 and 21 days
Protocol: as §1, §2, §3, §4, §5

Setaria viridis [2] = experiment: as above; format: in vivo; details: nicosulfuron 30 or 60 g/ha, adjuvant 0.2% by volume; mean over two rates, three replicates, 17 and 21 days
Protocol: as §1, §2, §3, §4, §5

Abutilon theophrasti [3] = experiment: as above; format: in vivo; details: nicosulfuron 30 or 60 g/ha, adjuvant 0.2% by volume; mean over two rates, three replicates, 17 and 21 days
Protocol: as §1, §2, §3, §4, §5

[4] = tested on: Setaria viridis, Chenopodium album, Abutilon theophrasti and Digitaria sanguinalis; experiment: Glasshouse spray test, nicosulfuron with carbonates A-E (Example 5), mean over four plant species; format: in vivo; details: for Mean % Phytotoxicity: Atplus 411F 0.5% by volume, 22 days, mean over rates, replicates, four species; for Adjuvant effect on efficacy of nicosulfuron (in words): 0.2% v/v carbonate with nicosulfuron, Tables 8 and 9
Protocol: as §1
When the plants were at the vegetative stage of 3-4 leaves they were sprayed with an aqueous spray solution containing the herbicide nicosulfuron and 0.2% v/v of one of the carbonates A, B, C, D and E (see Table 7).
Each spray solution was applied with a cabinet tracksprayer with a flat fan nozzle (Teejet 11002VS) and an application volume of 200 liter/ha (at 2 bar). Nicosulfuron was applied at either 15 or 60 grams of pesticide per hectare.
The test plants were then grown on, in a glasshouse under controlled conditions (at 24/18° C. day/night; 16 hours light; 65% humidity) and watered twice a day. After 22 days the test was evaluated for general crop injury or phytotoxicity (100% equals total damage to a plant; 0% equals no damage to a plant).
The results shown in Table 8 below are mean averages over the two rates of nicosulfuron, the three replicates and the four plant species, and are compared to the efficacy of nicosulfuron in the absence of an adjuvant and nicosulfuron in the presence of the commercially available tank-mix adjuvant, Atplus411F® (at 0.5% by volume).

[5] = tested on: Setaria viridis, Chenopodium album, Abutilon theophrasti and Digitaria sanguinalis; experiment: Glasshouse post-emergence spray test, nicosulfuron with adjuvant (Example 1), mean across species; format: in vivo; details: nicosulfuron 30 or 60 g/ha, adjuvant 0.2% by volume; 17 and 21 days; Tukey HSD letter
Protocol: as §1, §2, §3, §4, §5

Chenopodium album [6] = experiment: Glasshouse post-emergence spray test, fomesafen with adjuvant (Example 2); format: in vivo; details: fomesafen 60 or 120 g/ha, carbonate 0.2% v/v or Turbocharge 0.5% v/v; mean over two rates, three replicates, 14 and 21 days
Protocol: (§6) Setaria viridis, Chenopodium album, Abutilon theophrasti and Ipomea hederacea seeds were sown into standard soil in pots and cultivated under controlled conditions in a glasshouse (at 24/18° C. day/night; 16 hours light; 65% humidity).
(§7) When the plants were at the vegetative stage of 2-4 leaves they were sprayed with an aqueous spray solution containing the herbicide fomesafen and 0.2% v/v of one of the carbonates B92-P-Carbonate, B92-B-Carbonate and B96-P-Carbonate (see Table 1).
(§8) The spray solution was applied with a cabinet tracksprayer with a flat fan nozzle (Teejet 11002VS) and an application volume of 200 liter/ha (at 2 bar). Fomesafen was applied at either 60 or 120 grams of pesticide per hectare.
(§9) The test plants were then grown on, in a glasshouse under controlled conditions (at 24/18° C. day/night; 16 hours light; 65% humidity) and watered twice a day. After 14 and 21 days the test was evaluated for general crop injury (100% equals total damage to a plant; 0% equals no damage to a plant).
(§10) The results shown in Table 4 below are mean averages over the two rates of fomesafen, three replicates and the two assessment timings, and are compared to the efficacy of fomesafen in the absence of an adjuvant, and fomesafen in the presence of the commercially available tank-mix adjuvant, Turbocharge®, which was used at an application rate of 0.5% by volume of the spray tank.

Setaria viridis [7] = experiment: as above; format: in vivo; details: fomesafen 60 or 120 g/ha, carbonate 0.2% v/v or Turbocharge 0.5% v/v; mean over two rates, three replicates, 14 and 21 days
Protocol: as §6, §7, §8, §9, §10

Abutilon theophrasti [8] = experiment: as above; format: in vivo; details: fomesafen 60 or 120 g/ha, carbonate 0.2% v/v or Turbocharge 0.5% v/v; mean over two rates, three replicates, 14 and 21 days
Protocol: as §6, §7, §8, §9, §10

COMBEN = experiment: as above; format: in vivo, Ipomea hederacea; details: fomesafen 60 or 120 g/ha, carbonate 0.2% v/v or Turbocharge 0.5% v/v; mean over two rates, three replicates, 14 and 21 days
[9] = tested on: Setaria viridis, Chenopodium album, Abutilon theophrasti and Ipomea hederacea; experiment: Glasshouse post-emergence spray test, fomesafen with adjuvant (Example 2), mean across species; format: in vivo; details: fomesafen 60 or 120 g/ha, carbonate 0.2% v/v or Turbocharge 0.5% v/v; 14 and 21 days; Tukey HSD letter
Protocol: as §6, §7, §8, §9, §10

Septoria tritici [10] = experiment: Septoria tritici on wheat, epoxiconazole with compound E (Example 9); format: in vivo
Protocol: (§11) Wheat plants were inoculated with the fungus Septoria tritici. Four days after inoculation the plants were sprayed with a diluted suspension concentrate formulation of the fungicide epoxiconazole at rates of 3, 10, 30 and 100 mg of the fungicide per liter of spray solution, using a laboratory track sprayer which delivered the spray at a rate of 200 liters per hectare. Spray tests were also carried out with a diluted suspension concentrate additionally comprising the carbonate compound E (see Table 7) added to the spray solution at a rate of 0.1% v/v, based on the quantity of spray liquor. The leaves of the plants were assessed visually 12 days after the spray application and the damage was expressed as the percentage of the leaf area infected. Each spray test was replicated four times across the four application rates.
The results shown in Table 14 below are mean averages over the four rates of epoxiconazole and the four replicates, and are compared to the efficacy of epoxiconazole in the absence of an adjuvant, and epoxiconazole in the presence of oleyl ethoxylate 20EO butyl end capped adjuvant used as a standard adjuvant for comparative purposes (at 0.1% by volume).

[11] = tested on: Avena fatua, Lolium perenne, Setaria viridis and Alopecurus myosuroides; experiment: Glasshouse spray test, pinoxaden with carbonates A-E (Example 7), mean over four plant species; format: in vivo; details: 0.2% v/v carbonate with pinoxaden, Tables 11 and 12
Protocol: Avena fatua, Lolium perenne, Setaria viridis and Alopecurus myosuroides seeds were sown into standard soil in pots and cultivated under controlled conditions in a glasshouse (at 20/16° C. day/night; 15 hours light; 65% humidity).
When the plants were at the vegetative stage of 2-3 leaves they were sprayed with an aqueous spray solution containing the herbicide pinoxaden and 0.2% v/v of one of the carbonates A, B, C, D and E (see Table 7).
The spray solution was applied with a cabinet tracksprayer with a flat fan nozzle (Teejet 11002VS) and an application volume of 200 liter/ha (at 2 bar). Pinoxaden was applied at either 7.5 or 15 grams of pesticide per hectare.
The test plants were then grown on. in a glasshouse under controlled conditions (at 24/18° C. day/night; 16 hours light; 65% humidity) and watered twice a day. After 22 days the test was evaluated for general crop injury or phytotoxicity (100% equals total damage to a plant; 0% equals no damage to a plant).
The results shown in Table 11 below are mean averages over the two rates of pinoxaden, the three replicates and the four plant species, and are compared to the efficacy of pinoxaden in the absence of an adjuvant, and pinoxaden in the presence of tris(2-ethylhexyl)phosphate, used as a standard adjuvant for comparative purposes (at 0.2% by […] volume).

Septoria tritici [12] = experiment: Septoria tritici on wheat, isopyrazam with compound E (Example 8); format: in vivo; details: 0.1% v/v compound E with isopyrazam, Table 13
Protocol: as §11, with “isopyrazam” for “epoxiconazole”
The results shown in Table 13 below are mean averages over the four rates of isopyrazam and the four replicates, and are compared to the efficacy of isopyrazam in the absence of an adjuvant, and isopyrazam in the presence of oleyl ethoxylate 20EO butyl end capped adjuvant used as a standard adjuvant for comparative purposes (at 0.1% by volume).

[13] = tested on: Brachiaria plantaginea, Digitaria sanguinalis, Commelina benghalensis and Polygonum convulvulus; experiment: Glasshouse spray test, mesotrione with carbonates A-D (Example 6), mean over four plant species; format: in vivo; details: 0.2% v/v carbonate with mesotrione, Table 10
Protocol: Brachiaria plantaginea, Digitaria sanguinalis, Commelina benghalensis and Polygonum convulvulus seeds were sown into standard soil in pots and cultivated under controlled conditions in a glasshouse (at 24/18° C. day/night; 16 hours light; 65% humidity).
When the plants were at the vegetative stage of 2-4 leaves they were sprayed with an aqueous spray solution containing the herbicide mesotrione and 0.2% v/v of one of the carbonates A, B, C and D (see Table 7).
The spray solution was applied with a cabinet tracksprayer with a flat fan nozzle (Teejet 11002VS) and an application volume of 200 liter/ha (at 2 bar). Mesotrione was applied at either 30 or 60 grams of pesticide per hectare.
The test plants were then grown on, in a glasshouse under controlled conditions (at 24/18° C. day/night; 16 hours light; 65% humidity) and watered twice a day. After 25 days the test was evaluated for general crop injury or phytotoxicity (100% equals total damage to a plant; 0% equals no damage to a plant).
The results shown in Table 10 below are mean averages over the two rates of mesotrione, the three replicates and the four plant species and are compared to the efficacy of mesotrione in the absence of an adjuvant, and mesotrione in the presence of the commercially available tank-mix adjuvant, Tween 20 ®+Rhodasurf DA/630-E® (combined in a 2:1 ratio) at 0.5% by volume.

COc1cc(OC)nc(NC(=O)NS(=O)(=O)c2ncccc2C(=O)N(C)C)n1 [Nicosulfuron]
Mean percentage kill CHEAL (Chenopodium album [1]): 36.7%
Mean percentage kill DIGSA (Digitaria sanguinalis): 31.7%
Mean percentage kill SETVI (Setaria viridis [2]): 79.2%
Mean percentage kill ABUTH (Abutilon theophrasti [3]): 48.3%
Mean % Phytotoxicity ([4]; Table 8: nicosulfuron 15 or 60 g/ha, compounds A-D 0.2% by volume): 36.46%
Mean % Phytotoxicity ([4]; Table 9: nicosulfuron 15 or 60 g/ha, compound E 0.2% by volume): 28.3%
Mean percentage kill, Mean across species [5]: 49.0 B %

CS(=O)(=O)NC(=O)c1cc(Oc2ccc(C(F)(F)F)cc2Cl)ccc1[N+](=O)[O-] [Fomesafen]
Mean percentage kill CHEAL (Chenopodium album [6]): 58.3%
Mean percentage kill SETVI (Setaria viridis [7]): 19.2%
Mean percentage kill ABUTH (Abutilon theophrasti [8]): 23.3%
Mean percentage kill COMBEN (COMBEN): 15.0%
Mean percentage kill, Mean across species [9]: 29.0 C %

Glycerol-(6EO-CO3-2- ethylhexyl)3 [compound C]
Adjuvant effect on efficacy of nicosulfuron (in words) [4]: particularly effective as adjuvants for nicosulfuron

Fc1ccc([C@]2(Cn3cncn3)O[C@H]2c2ccccc2Cl)cc1 (racemic) [Epoxiconazole]
Mean % infection (Septoria tritici [10]; wheat leaf area infected 12 days after spray, epoxiconazole 3, 10, 30 and 100 mg/l, adjuvant 0.1% by volume, mean over four rates, four replicates): 40.0%

Oleyl 10EO-(CO3-2- ethylhexyl) [compound E]
Adjuvant effect on efficacy of pinoxaden (in words) [11]: effective as an adjuvant for pinoxaden
Effect on infection by S. tritici versus epoxiconazole without adjuvant (in words) (Septoria tritici [10]; 0.1% v/v compound E with epoxiconazole, Table 14): significant reduction in the percentage of infection by S. tritici
Effect on infection by S. tritici versus isopyrazam without adjuvant (in words) (Septoria tritici [12]): significant reduction in the percentage of infection by S. tritici
Adjuvant effect on efficacy of nicosulfuron (in words) [4]: particularly effective adjuvant for nicosulfuron

CCOC(=O)OCC(COC(=O)OCC)OC(=O)OCC [compound A, Glycerol-(CO3-ethyl)3]
Adjuvant effect on efficacy of mesotrione (in words) [13]: particularly effective at increasing the efficacy of mesotrione compositions
Adjuvant effect on efficacy of nicosulfuron (in words) [4]: increase the efficacy of nicosulfuron compositions

Glycerol-(6EO-CO3- phenyl)3 [compound D]
Adjuvant effect on efficacy of nicosulfuron (in words) [4]: particularly effective as adjuvants for nicosulfuron

CCCCC(CC)COC(=O)OCC(COC(=O)OCC(CC)CCCC)OC(=O)OCC(CC)CCCC (stereo not drawn) [compound B, Glycerol-(CO3-2-ethylhexy1)3]
Adjuvant effect on efficacy of pinoxaden (in words) [11]: most effective at increasing the efficacy of the pinoxaden composition
Adjuvant effect on efficacy of mesotrione (in words) [13]: particularly effective at increasing the efficacy of mesotrione compositions
Adjuvant effect on efficacy of nicosulfuron (in words) [4]: increase the efficacy of nicosulfuron compositions
